Test results: patent US20100159528A1, “POLYMERASE STABILIZATION” (GE HEALTHCARE BIO-SCIENCE CORP., priority 2007, published 2010)

Columns and labels:
DNA polymerase [1] = conditions: for effect of high detergent concentration on stability and activity: Concentrations above 0.5% (W/V)
Description: For ♦, each detergent is present at the indicated amount.
(§1) The stabilization functions of these two detergents are tested for δJSER DNA polymerase as well. […] In addition, the stabilization effects of these two detergents on DNA polymerase were also tested in the activity assay and thermostability assay.

δJSER DNA polymerase = assay: Stabilization/activation test for δJSER DNA polymerase; format: biochemical, JSER; conditions: compared with the effect on Tba
Description: as §1

DNA polymerase [2] = test system: DNA polymerase
Description: An enzyme will have a maximal activity rate, which is preferably measured under conditions of saturating substrate concentration and at a selected set of environmental conditions including temperature, pH and salt concentration. For the DNA polymerases described herein, preferred conditions for measuring activity are 25 mM TAPS (tris-hydroxymethyl 25 methylaminopropane sulfonic acid) buffer, pH 9.3 (measured at 25° C.), 50 mM KCl, 2 mM MgCl2, 1 mM 2- mercaptoethanol, 0.2 mM each of dGTP, dCTP, dTTP, 0.2 mM [α-33P]-dATP (0.05-0.1 Ci/mmol) and 0.4 mg/mL activated salmon sperm DNA. The reaction is allowed to proceed at 74° C. Exemplary methods for measuring the DNA polymerase activity of an enzyme under such 30 conditions are provided hereinafter.
as §1

Tba DNA polymerase = assay: PCR assay for detergents screening: amplification of a 1 kb λDNA fragment with Tba purified and stored without detergents; format: biochemical, Thermococcus barossii; conditions: for % Activity relative to TWEEN ® 20: PCR yield of 1 kb λDNA fragment, Agilent Bioanalyzer; for PCR yield higher than the positive control (TWEEN® 20): PCR reactions containing the detergent; for stabilization and activation of DNA polymerase (in words): detergent added into PCR reaction mix at 0.01% and 0.1% (FIG. 2)
Description: In this experiment, two lots of DNA polymerase that were purified and stored in buffers with/without detergents were tested. Each of the tested DNA polymerase was first diluted into 20 folds in buffers with and without of TWEEN® 20, respectively, prior to PCR and then equal units of enzyme was added into PCR mix. PCRs were performed in 25 μl volume in with 200 nM of forward and reverse primers, 200 μM dNTP, 1.0 unit of Tba and 1.0 ng template DNA. 1 kb human genomic DNA and 1 kb lambda DNA fragments were amplified. Reaction buffer contains 10 mM Tris-HCl, pH 9.0, 50 mM KCl, and 1.5 mM MgCl2. The PCR reaction was started by 2 minutes initial heating at 95° C., followed by 35 cycles with 95° C. for 30 s, 55° C. 30 s, and 72° C. for 60 s, and then final extension at 72° C. for 5 min. The PCR products were analyzed with Agilent Bioanalyzer.
The PCR assay was used for the detergents screening. The tested detergents were first dissolved in molecular biology grade water and neutralized to pH7 with a sodium hydroxide solution to make final concentration of 5% (W/V) stock solutions. The 5% detergent solutions were then used for the screening by either adding them into enzyme dilution buffer or spiked into PCR mix. The amplification of a 1 kb λDNA fragment was used test the effect of each detergent on the Tba stability and activity. The PCR conditions are the same as described earlier. Tba that was purified and stored in the absence of detergents was used for the tests. The tested detergents were spiked into the PCR reactions at a final concentration of 0.01%, 0.05%, and 0.1%, respectively. The PCR yields were quantitated by Agilent Bioanalyzer.

[3] = Detergent Conc. 0.01% in PCR reaction
[4] = Detergent Conc. 0.05% in PCR reaction
[5] = Detergent Conc. 0.10% in PCR reaction

| Substance | stabilization effect in the thermostability test compared with TWEEN® 20 (DNA polymerase [1]) | effect of high detergent concentration on stability and activity (DNA polymerase [1]) | activation of δJSER DNA polymerase (δJSER DNA polymerase) | stabilization effect in the activity assay compared with TWEEN® 20 (DNA polymerase [2]) | % Activity relative to TWEEN ® 20 (Tba DNA polymerase; [3]) [%] | % Activity relative to TWEEN ® 20 (Tba DNA polymerase; [4]) [%] | % Activity relative to TWEEN ® 20 (Tba DNA polymerase; [5]) [%] | PCR yield higher than the positive control (TWEEN® 20) (Tba DNA polymerase) | stabilization and activation of DNA polymerase (in words) (Tba DNA polymerase) | formation of PCR products depending on detergent in the enzyme dilution buffer (Tba DNA polymerase; Tba diluted 20 fold in buffer with/without TWEEN® 20, 1 kb λDNA and human genomic DNA fragments (FIG. 1)) | DNA polymerase remaining active after heating (DNA polymerase [1]; 95° C., 15 minutes, 1x PCR buffer, compared with NP40 and TWEEN® 20 (FIG. 3)) |
| --- | --- | --- | --- | --- | --- | --- | --- | --- | --- | --- | --- |
| polyoxyethylene tridecyl ether, phosphate [RHODAFAC™ RS-960] | same or better stabilization effects | do not improve stability but do not decrease activity | same activation | same or better stabilization effects | 101.8 | 167.9 | 178.6 | about 30% | work very well in stabilization and activation of DNA polymerase | – | – |
| TWEEN® 20 [reference compound] | – | – | – | – | – | – | – | – | – | PCR products were only obtained from the reactions that the enzymes were diluted in a buffer containing the detergent | – |
| polyoxyethylene nonylphenol ether, phosphate [RHODAFAC™ RE-960] | same or better stabilization effects | do not improve stability but do not decrease activity | same activation | same or better stabilization effects | 130.7 | 165.8 | 167.1 | about 30% | work very well in stabilization and activation of DNA polymerase | – | more DNA polymerase remains active |
